The nature of data set [1]: Stability study of ACT peptide in drug product gel. It counts as physicochemical. The following applies: for ACT peptide remaining, % of the label claim (initial concentration): drug product with 1.25% hydroxyethylcellulose. As for the experimental part: Derived through in vitro and in vivo studies, these stabilizers and excipients are incorporated into the drug product since they are non-irritating, non-staining, and non-immunogenic. […] The ACT peptide within the drug product containing 1.25% hydroxyethylcellulose only dropped to 98% of the label claim (i.e., initial concentration) when stored at 5° C. for three months and to 84% of the label claim when stored at 25° C. for the same duration. In one aspect of the invention, edetate disodium (EDTA) and Mannitol are incorporated within the drug product to provide stability to the ACT1 peptide. In some embodiments of the invention, the Mannitol is present in the formulation at 0.01% (w/w) to 1.6% (w/w), 0.01% (w/w) to 1.5% (w/w), 0.01% (w/w) to 1.4% (w/w), 0.01% (w/w) to 1.3% (w/w), 0.01% (w/w) to 1.2% (w/w), 0.01% (w/w) to 1.1% (w/w), 0.01% (w/w) to 1.0% (w/w), 0.01% (w/w) to 0.9% (w/w), 0.01% (w/w) to 0.8% (w/w), 0.01% (w/w) to 0.7% (w/w), 0.01% (w/w) to 0.6% (w/w), 0.01% (w/w) to 0.5% (w/w), 0.01% (w/w) to 0.4% (w/w), 0.01% (w/w) to 0.3% (w/w), 0.01% (w/w) to 0.2% (w/w), 0.01% (w/w) to 0.1% (w/w), or 0.01% (w/w) to 0.0.05% (w/w). In specific embodiments, the Mannitol is present in the formulation at about 0.05% (w/w).

The test system of data set [2] is C57BL/6 mice, partial body irradiation. Kind of data set: GI-targeted murine partial body irradiation model, survival. It is filed as in vivo, mouse. The following applies: 10 mg/kg intraperitoneally daily from 24 hrs post exposure up to 21 days, preliminary. The text has this:
In this study, C557BL/6 mice (n=40; 20 females and 20 males) were exposed to partial body irradiation by one dose exposure of […] at 50cGy/min using a 60 Co gamma source. A Farmer ionization chamber was used to provide real-time quantification of the radiation dose. Animals were irradiated in a custom designed restrainer where their left pelvic limb was extended and maintained in position to permit shielding with a cerrobend structure. This method of shielding 5% of bone marrow serves to rescue mice from hematopoietic syndromel. Initiating 24 hrs post exposure, animals were treated daily with 0.9% sodium chloride (vehicle) or 10 mg/kg ACTT 1 (ACT1 polypeptide) delivered intraperitoneally for up to 21 days. Half of the animals (subtracting those that died on days 1-7) were euthanized on day 8 to allow for histological examination of GI organs (histology results pending).

Residues, ends and D or L forms follow the SMILES beside them. *: point of attachment. Biotin = O=C1N[C@H]2[C@H](CS[C@H]2CCCCC(=O)*)N1; Ahx = NCCCCCC(=O)O

Regarding `CC[C@H](C)[C@H](NC(=O)[C@H](CCC(=O)O)NC(=O)[C@H](CC(C)C)NC(=O)[C@H](CC(=O)O)NC(=O)[C@H](CC(=O)O)NC(=O)[C@@H]1CCCN1C(=O)[C@H](CCCNC(=N)N)NC(=O)[C@@H]1CCCN1C(=O)[C@H](CCCNC(=N)N)NC(=O)[C@H](CCCCN)NC(=O)[C@H](CCCCN)NC(=O)[C@H](Cc1c[nH]c2ccccc12)NC(=O)[C@@H]1CCCN1C(=O)[C@H](CCCCN)NC(=O)[C@H](CCCNC(=N)N)NC(=O)[C@H](CCCNC(=N)N)NC(=O)[C@H](CC(N)=O)NC(=O)[C@@H]1CCCN1C(=O)[C@H](Cc1ccccc1)NC(=O)[C@H](Cc1c[nH]c2ccccc12)NC(=O)[C@@H](NC(=O)[C@H](CCCCN)NC(=O)[C@@H]1CCCN1C(=O)[C@H](CCC(N)=O)NC(=O)[C@H](CCCNC(=N)N)NC(=O)CCCCCNC(=O)CCCC[C@@H]1SC[C@@H]2NC(=O)N[C@@H]21)[C@@H](C)CC)C(=O)O` [Peptide 328967] ({Biotin-Ahx}-RQPKIWFPNRRKPWKKRPRPDDLEI-OH), the “ACT peptide remaining, % of the label claim (initial concentration)” value is 98% in data set [1] (stored at 5° C. for three months) and 84% in data set [1] (stored at 25° C. for three months). Also, the “Stability in Hydroxyethylcellulose, 250 HHX (1.25%) compared to Pluronic gels” value in data set [1] (gelling agent comparison) is “more stable”.
Take RPRPDDLEI [ACT1 polypeptide]: the “Survival / early mortality (Kaplan Maier analysis) compared to saline” value in data set [2] was “has an early effect on animal mortality”; in data set [2] (listed as ACTI polypeptide) it was “increased survival”.

The record behind these values is patent publication US20230147795A1, “COMPOSITION AND METHODS FOR PREVENTING RADIATION INJURY AND PROMOTING TISSUE REGENERATION” (FIRSTSTRING RESEARCH, INC., priority 2017, published 2023).
